Test results from a melting point compilation (Tetko et al.).

Row | melting point [°C] | SMILES
1 | 106 to 108 | CC(C)C(C#N)NC(=O)c1ccccc1 (centres undefined)
2 | 164 to 166 | CCC1(C(C)C)NC(=O)NC1=O (centres undefined)
3 | 53 to 55 | COC(=O)Cn1cnc(C#N)n1
4 | 87 to 89 | CCOC(=O)C1=C(CBr)C(C)(C)OC1=O
5 | 169 to 171 | Cc1ccccc1C1(C)NC(=O)NC1=O (centres undefined)
6 | 239 to 241 | Cc1ccc(C)c2c(C)c(C(=O)O)oc12
7 | 139 to 141 | COc1ccccc1N1CC(C(=O)O)CC1=O (centres undefined)
8 | 112 to 114 | CS(=O)(=O)c1ccc2c(c1)CCCN2
9 | 199 to 201 | Nc1ncc(Br)cc1S(N)(=O)=O
10 | 319 to 321 | O=c1c2c([nH]c3ccc(Oc4ccccc4)cc13)CCCC2
11 | 123 to 125 | N#Cc1ccc(S(=O)(=O)NCC2CCCO2)cc1 (centres undefined)
12 | 93 to 95 | c1ccc(-c2c[nH]c(C3CCCNC3)n2)cc1 (centres undefined)
13 | 54 to 56 | Cc1cc(S(=O)(=O)Cl)cnc1Cl
14 | 61 to 63 | N#Cc1cccc(-n2cccn2)c1
15 | 239 to 241 | CS(=O)(=O)c1ccc(N)c(C(=O)O)c1
16 | 219 to 221 | O=C1NCCCCC1Oc1ccc(O)cc1 (centres undefined)
17 | 269 to 271 | Cc1ccc(C(=O)O)cc1NC(=O)c1ccccc1
18 | 201 to 203 | Cc1cc(Cl)c(N)c(C(=O)O)c1
19 | 121 to 123 | Cc1c(C(=O)O)cc(F)cc1S(=O)(=O)Cl
20 | 141 to 143 | Cn1ccc(N2CCC(N)C2=O)n1 (centres undefined)
21 | 76 to 78 | Cc1nc2nc(Br)ccc2o1
22 | 129 to 131 | Cc1ccc(Cl)cc1N1CC(C(=O)O)CC1=O (centres undefined)
23 | 185 to 187 | CNc1cc(NC)c([N+](=O)[O-])cc1F
24 | 192 to 194 | Cc1csc(-c2cccc(C(=O)O)c2)n1

Row | melting point [°C] | SMILES
25 | 103 to 105 | O=CC1=Cc2cc(Br)ccc2OC1
26 | 185 to 187 | O=C(O)c1cc2cc(F)ccc2oc1=O
27 | 199 to 201 | O=C(O)C1CCCCC1c1nc2cc(Cl)ccc2[nH]1 (centres undefined)
28 | 119 to 121 | Cc1cc(C#N)ccc1NC1CCC(O)CC1 (centres undefined)
29 | 135 to 137 | CSc1nn(-c2ccccc2)c(N)c1C#N
30 | 208 to 210 | O=C(O)c1cc(-c2ccc(Cl)c(Cl)c2)ns1
31 | 37 to 39 | Cc1cc(Cl)ccc1OCCCC(=O)NN
32 | 153 to 155 | Cc1nccn1-c1ccc(F)cc1N
33 | 255 to 257 | N#Cc1ccccc1/C=C/C(=O)O
34 | 102 to 104 | COc1ccc(NCc2ccc(N(C)C)cc2)cc1
35 | 74 to 76 | CC(Cl)C(=O)N(CCC#N)c1ccccc1 (centres undefined)
36 | 183 to 185 | O=C(O)c1cc(S(=O)(=O)N2CCOCC2)ccc1Cl
37 | 257 to 259 | COc1ccc(/C=C/C(=O)O)cc1S(N)(=O)=O
38 | 206 to 208 | Nc1ccc(S(N)(=O)=O)cc1[N+](=O)[O-]
39 | 99 to 101 | Cc1nc2ccc(Br)cc2c(Cl)c1C
40 | 160 to 162 | Cc1cccc(NC2=NC(=O)CS2)c1
41 | 92 to 94 | N#Cc1ccc(F)c(F)c1N
42 | 31 to 33 | N#Cc1cc(F)ccc1N=C=O
43 | 36 to 38 | Cc1cc(CC#N)no1
44 | 188 to 190 | Cn1cc(-c2ccc(Cl)nn2)cn1
45 | 151 to 153 | CC1(c2ccsc2)NC(=O)NC1=O (centres undefined)
46 | 56 to 58 | CNc1snc(C)c1C(=O)OC
47 | 110 to 112 | Cc1cccc(NC(=O)C=NO)c1C
48 | 192 to 194 | Cc1ccc(NS(=O)(=O)c2ccsc2C(=O)O)cc1

Row | melting point [°C] | SMILES
49 | 188 to 190 | O=C(O)CC1Sc2ccccc2NC1=O (centres undefined)
50 | 90 to 95 | CC(=O)c1cccc(N2CCCC2=O)c1
51 | 121 to 123 | Cc1ccc2nc3ccccc3c(Cl)c2c1
52 | 159 to 161 | O=C(O)c1cc(-c2ccco2)nn1-c1ccccc1
53 | 159 to 161 | CC(=Cc1ccc(Cl)cc1)C(=O)O
54 | 203 to 205 | N#Cc1ccc(-n2cncn2)nc1
55 | 173 to 175 | COc1ccccc1C(=O)/C=C1\NC(=O)CS1
56 | 97 to 99 | O=C1NC2(CCCC2)C(=O)N1CCBr
57 | 373 to 375 | O=C(O)c1ccc2[nH]c(=O)[nH]c2c1
58 | 186 to 188 | CC(O)c1ccc(N2CCNC(=O)C2)cc1Cl (centres undefined)
59 | 218 to 220 | Cc1cc2oc(=O)cc(CCl)c2cc1Cl
60 | 188 to 190 | COc1ccc(C)cc1C1(C)NC(=O)N(CC(=O)O)C1=O (centres undefined)
61 | 135 to 137 | CCOC(=O)c1ccc(S)nc1
62 | 155 to 157 | O=[N+]([O-])c1ccc2c(c1)CCCN2
63 | 218 to 220 | O=C(O)c1ccnc(Cl)c1I
64 | 134 to 136 | Nc1nc2ccc(C(F)(F)F)cc2[nH]1
65 | 258 to 260 | Cc1cc2c(=O)[nH]cnc2s1
66 | 171 to 173 | Cc1cc(C)nc(-n2cc(C(=O)O)c(C(C)C)n2)n1
67 | 159 to 161 | CCNC(=O)Nc1cccc(F)c1C(=O)O
68 | 112 to 114 | O=Cc1ccc(-c2ccccc2[N+](=O)[O-])s1
69 | 161 to 163 | Cc1cc([N+](=O)[O-])cc(C)c1N
70 | 351 to 353 | Cc1[nH]c(=O)[nH]c(=O)c1C#N
71 | 329 to 331 | O=S(=O)(O)c1nc2ccc(Cl)cc2[nH]1

Second part, the compound before the results:

Row | SMILES | melting point [°C]
72 | CC(=O)CC(=O)Nc1ccc(C(C)C)cc1 | 68 to 70
73 | COc1ccc(C(C)=O)cc1-c1cccc(C(F)(F)F)c1 | 76 to 78
74 | CC(=O)c1cncnc1 | 63 to 65
75 | O=C(CCl)NCCCc1ccccc1 | 76 to 79
76 | NNc1ncc(Cl)cc1Cl | 179 to 181
77 | ICc1cccc2cccnc12 | 79 to 81
78 | NC(=O)C1CCC(C(=O)O)CC1 (centres undefined) | 205 to 207
79 | O=C(O)[C@@H]1CCCN1C(=O)c1ccccn1 | 165 to 167
80 | NC(=O)CSc1ccccc1NC(=O)CCl | 129 to 131
81 | Nc1ccc(N2CCN(S(=O)(=O)C(F)F)CC2)cc1 | 110 to 112
82 | Nc1nc(-c2ccccn2)cs1 | 135 to 137
83 | COc1cccc(-n2ccnc2S)c1 | 149 to 151
84 | CC(C)OCCS(=O)(=O)NCC(=O)O | 63 to 65
85 | CC(=O)C(C#N)c1c(F)cccc1Cl (centres undefined) | 100 to 102
86 | CCc1c(C(=O)O)cnn1C(C)(C)C | 133 to 135
87 | NCC(O)c1cccs1 (centres undefined) | 81 to 83
88 | CN(C(=O)c1ccccc1O)C1CCCC1 | 65 to 74
89 | CC(C)C(Br)C(=O)NC(C)(C)C (centres undefined) | 135 to 137
90 | NC(=O)C1CCc2ccccc2N1 (centres undefined) | 115 to 117
91 | Nc1cnn(CC(=O)NC2CCCC2)c1 | 108 to 110
92 | CC(C)C(C(=O)O)n1cncn1 (centres undefined) | 177 to 179
93 | NC(=O)CCOc1ccc(N)cc1 | 110 to 112
94 | NCCC(=O)N1CCN(c2ccccn2)CC1 | 76 to 78
95 | Cc1cc(C(=O)O)nn1C(C)(C)C | 143 to 145
96 | CC(=O)c1cncs1 | 64 to 66
97 | O=C(O)c1ccc(-n2cncn2)c(F)c1 | 285 to 287

Row | SMILES | melting point [°C]
98 | NCc1nnc2n1CCCCC2 | 70 to 72
99 | NC(=O)C1(Br)CCC1 | 150 to 152
100 | CCNC(=O)NCCO | 53 to 55
101 | Nc1nnc(SCc2ccc(F)cc2)s1 | 145 to 147
102 | Nc1ccc(SCc2ccccc2)cn1 | 94 to 96
103 | O=C(O)C1(c2ccc(Cl)cc2)CCOCC1 | 181 to 183
104 | O=C(O)CCCc1ccc(Cl)cc1 | 58 to 60
105 | O=C(O)/C=C/c1cn(Cc2ccccc2Cl)nc1-c1ccccc1 | 148 to 150
106 | OC(c1c(Cl)cccc1Cl)C1CCOCC1 (centres undefined) | 106 to 108
107 | NC(=O)C1CCCC1N (centres undefined) | 123 to 125
108 | COc1cc(-c2nc(CCl)cs2)ccc1O | 86 to 88
109 | Cc1cn2c(n1)CCC(N)C2 (centres undefined) | 49 to 51
110 | CNCC(=O)N1CCN(C(=O)OC(C)(C)C)CC1 | 64 to 66
111 | Nc1ncc2c(n1)CCN(Cc1ccccc1)C2 | 179 to 181
112 | O=C(CN1CCNCC1)NC1CC1 | 22 to 24
113 | COc1ccc(-c2nn(-c3ccccc3)cc2CCl)cc1 | 89 to 91
114 | NS(=O)(=O)N1CCCCC1 | 121 to 123
115 | O=C1NC(=O)C2(CCNC2)N1 (centres undefined) | 201 to 203
116 | OC1CCc2cn[nH]c2C1 (centres undefined) | 154 to 156
117 | O=C(CCl)NC(=O)NCc1ccco1 | 128 to 130
118 | Nc1ccc(Cl)c(C(=O)NCc2ccccc2F)c1 | 95 to 97
119 | CCOc1ccc(N)cc1CO | 77 to 79
120 | ClCc1coc(-c2ccc(Cl)cc2)n1 | 91 to 93
121 | O=C(Nc1ccc(Cl)cn1)C1CCCNC1 (centres undefined) | 156 to 158
122 | CC1CN(Cc2ccc(C(=O)O)cc2)CCO1 (centres undefined) | 186 to 188
123 | Nc1cnc(-c2cccc(F)c2)nc1 | 112 to 114

Row | SMILES | melting point [°C]
124 | NC(=O)Cc1ccc(Cl)cc1 | 183 to 185
125 | O=C(c1ccccc1)c1nccs1 | 40 to 42
126 | O=C(O)c1cc(/C=C/c2ccc(Br)cc2)nc2ccc(Br)cc12 | 309 to 311
127 | Nc1nc(CCl)nc(Nc2ccccc2)n1 | 139 to 141
128 | O=C(O)C(Cc1ccccc1Br)Cc1ccccc1Br | 145 to 147
129 | Nc1ccc(-c2cccc(C(F)(F)F)c2)cc1 | 65 to 67
130 | CC(Oc1ccc(Cl)cc1)C(=O)O (centres undefined) | 111 to 113
131 | Nc1ccc(Oc2cc(Cl)ccc2Cl)c(F)c1 | 62 to 64
132 | NC1(C(=O)O)CCCSC1 (centres undefined) | 208 to 210
133 | COC(=O)c1ccc(Oc2cccnc2)cc1 | 82 to 84
134 | CNCCC1CCN(C2CCN(C)CC2)CC1 | 48 to 50
135 | O=C1OC(CBr)CN1c1ccccc1 (centres undefined) | 102 to 104
136 | CC1CCN(C(=O)c2ccccc2N)CC1 | 59 to 61
137 | CC(C)C(NC(=O)c1ccc(Cl)cc1)C(=O)O (centres undefined) | 197 to 199
138 | OC1CCc2c(F)cccc21 (centres undefined) | 59 to 61
139 | CCn1cc(S(N)(=O)=O)cn1 | 86 to 88
140 | C=CCSc1nnc(N)s1 | 119 to 121
141 | CSc1ccc(C=CC(=O)O)cc1 | 177 to 179
142 | C=CC(=O)Nc1ccc(OCC)c(CO)c1 | 129 to 131
143 | ClCc1nc(Cl)c2cnn(-c3ccccc3)c2n1 | 112 to 114
144 | NC(=O)C1CC2CCCCC2N1 (centres undefined) | 123 to 125
145 | CC(CSc1ccccc1)C(=O)O (centres undefined) | 40 to 42
146 | CS(=O)(=O)N1CCCC(CCl)C1 (centres undefined) | 64 to 66
147 | CN(C)CCn1nnnc1S | 213 to 215
148 | CCc1ccc(C(N)=S)cc1 | 47 to 51
149 | O=C(O)CNS(=O)(=O)c1ccc2c(c1)nnn2O | 229 to 231
